*1 amine or outer side, *2 acyl side, *3 side chain or, on linkers, in order; H or OH if unused. Where a SMILES comes first, the peptide text is derived from it. Bridges are numbered along the chain shown (N, C = ends). Biphenyl(4,4'-CH2)2 = c1cc(-c2ccc(C[*:2])cc2)ccc1C[*:1]
Key:
[1] = target: galectin-3 (Gal-3) carbohydrate-binding domain; conditions: read-out: Kd to Gal-3; cited from earlier work
circular dichroism = conditions: 10 mM Tris-HCl; pH 7; 25 °C; 50 uM
galectin-3 (Gal-3) = galectin-3 (Gal-3) (Homo sapiens, UniProt P17931); format: binding
Chain of galectin-3 (Gal-3) (P17931 whole entry): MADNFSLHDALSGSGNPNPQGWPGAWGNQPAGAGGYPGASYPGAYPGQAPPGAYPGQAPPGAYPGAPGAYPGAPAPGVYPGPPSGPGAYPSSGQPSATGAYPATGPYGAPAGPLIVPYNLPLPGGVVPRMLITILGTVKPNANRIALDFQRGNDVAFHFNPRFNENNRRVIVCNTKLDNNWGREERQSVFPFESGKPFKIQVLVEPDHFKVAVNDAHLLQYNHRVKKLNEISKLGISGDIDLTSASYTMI

[2] = format: physicochemical; conditions: pH 7

In the case of `CC(=O)N[C@H]1C(O)O[C@H](CO)[C@@H](O[C@@H]2O[C@H](CO)[C@H](O)[C@H](O)[C@H]2O)[C@@H]1O` (some centres unmarked) [N-acetyllactosamine], the Kd [1] is listed as 200 µM.

For `C[C@H](NC(=O)[C@H](CCCCN)NC(=O)[C@H](CCCCN)NC(=O)[C@@H]1CSCc2ccc(cc2)-c2ccc(cc2)CSC[C@H](NC(=O)[C@H](CCC(=O)O)NC(=O)[C@@H]2CCCN2C(=O)[C@H](C)NC(=O)CN)C(=O)N[C@@H](CCCCN)C(=O)N[C@@H](CCCNC(=N)N)C(=O)N[C@@H](CCCCN)C(=O)N[C@@H](CCC(=O)O)C(=O)N[C@@H](Cc2ccc(O)cc2)C(=O)N[C@@H](CCC(=O)O)C(=O)N1)C(=O)NCC(N)=O` (H-GAPECKRKEYECKKAG-NH2; linker 5-12 via Biphenyl(4,4'-CH2)2), the helicity (circular dichroism) was 30%.

With “H-GAQECPPKEPACKKAG-GGGK-(flu)-NH2 (sidechain bridge or staple) [p8-flu-BP]” the “effect of excess lactose on fluorescent intensity change with Gal-3” value (galectin-3 (Gal-3)) was “did not significantly affect”.

For “H-GAQECVYKEQSCKSAG-GGGK-(flu)-NH2 [p4-flu]”, the “Gal-3 binding of non-stapled peptide (fluorescent intensity change)” value (galectin-3 (Gal-3)) was “did not show significant fluorescent changes”.

For `CC(C)[C@@H]1NC(=O)[C@@H](NC(=O)[C@H](CCC(=O)O)NC(=O)[C@H](CCC(N)=O)NC(=O)[C@H](C)NC(=O)CN)CSCc2ccc(cc2)-c2ccc(cc2)CSC[C@@H](C(=O)N[C@@H](CCCCN)C(=O)N[C@@H](CO)C(=O)N[C@@H](C)C(=O)NCC(N)=O)NC(=O)[C@H](CO)NC(=O)[C@H](CCC(N)=O)NC(=O)[C@H](CCC(=O)O)NC(=O)[C@H](CCCCN)NC(=O)[C@H](Cc2ccc(O)cc2)NC1=O` (H-GAQECVYKEQSCKSAG-NH2; linker 5-12 via Biphenyl(4,4'-CH2)2), the helicity (circular dichroism) was 32%.

For H-GAAECAAKEAACKAAG-NH2 [control], the “helicity (α-helical content)” value [2] was 3.4%.

Work on `C[C@H](NC(=O)CN)C(=O)N[C@@H](CCC(N)=O)C(=O)N[C@@H](CCC(=O)O)C(=O)N[C@H]1CSCc2ccc(cc2)-c2ccc(cc2)CSC[C@@H](C(=O)N[C@@H](CCCCN)C(=O)N[C@@H](CCCCN)C(=O)N[C@@H](C)C(=O)NCC(N)=O)NC(=O)[C@H](C)NC(=O)[C@@H]2CCCN2C(=O)[C@H](CCC(=O)O)NC(=O)[C@H](CCCCN)NC(=O)[C@@H]2CCCN2C(=O)[C@@H]2CCCN2C1=O` (H-GAQECPPKEPACKKAG-NH2; linker 5-12 via Biphenyl(4,4'-CH2)2) yielded a helicity (circular dichroism) of 14%.

For “H-GAPECKRKEYECKKAG-GGGK-(flu)-NH2 [p10-flu]”, the “Gal-3 binding of non-stapled peptide (fluorescent intensity change)” value (galectin-3 (Gal-3)) was “did not show any Gal-3 binding”.

Reference: paper PMC7097893 (ACS Omega, 2020)
